In patent US20090305994A1, “Compounds Modulating Vegf Receptor and Uses Thereof” (priority 2005, published 2009):
No end group written: not given here.

How the values were obtained:
ERK1/2 kinase = test: VEGF-induced activation of ERK kinase in HUVEC (western blot); format: cell-based, human; conditions: VEGF 20 ng/ml plus MA 100 ng/ml, 30 min
Method: (§1) (a) HUVE cells (1×10^4/cm2) were incubated whit VEGF (20 ng/ml) in the absence or presence of MA peptide (100 ng/ml), in duplicates, for 30 min. Then cell lysates were obtained and analysed in Western blot with anti-phospho-ERK antibody. b) HUVE cells (1×10^4/cm2) were incubated with VEGF (20 ng/ml) in the absence or presence of MA peptide (100 ng/ml), in triplicates, for 24 h, at 37° C. in a 5% CO2 atmosphere. Then FITC-Annexin V binding was analyzed by flow cytometry.
Western blotting. Cell total protein lysates were prepared in sample buffer (2% sodium-dodecyl-sulphate, 10% glycerol, 2% mercaptoethanol and 60 mM Tris-HCl pH 6.8 in demineralized water) on ice. Lysates (25 μg) were run on 12% SDS-PAGE gels and electrophoretically transferred to nitrocellulose. Nitrocellulose blots were blocked with 5% BSA in Tris Buffer Saline Tween-20 (TBST) buffer [20 mM Tris-HCl (pH 7.4), 500 mM NaCl, and 0.01% Tween 20] and incubated with primary antibody in TBST-5% BSA overnight at 4° C. Immunoreactivity was detected by sequential incubation with horseradish peroxidase-conjugated secondary antibody and enhanced chemiluminescence reagents following standard protocols (Amersham Bioscience, UK).
Inhibition of VEGF-induced activation of ERK kinase by MA peptide. […] We therefore investigated whether MA peptide binding to the cells could block ERK activation by VEGF.

HUVEC [1] = test: Analysis of caspase 3 activity in HUVEC deprived of FBS; format: cell-based, human; conditions: VEGF 20 ng/ml plus peptide 20 ng/ml, 4 h
Method: HUVE cells (1×10^4/cm2) were incubated in medium without FBS, in the absence or presence of VEGF (20 ng/ml) and QK (5 ng/ml), at 37° C. in a 5% CO2 atmosphere. After 4 h, caspase 3 activity was determined. Results are expressed as mean values of triplicates.
HUVE cells (1×10^4/cm2) were incubated in medium without FBS, in the absence or presence of VEGF (20 ng/ml) and the indicated peptides (20 ng/ml), at 37° C. in a 5% CO2 atmosphere. After 4 h, caspase 3 activity was determined. Results are expressed as mean values of triplicates.
(§2) Analysis of caspase 3 activity—Cells (2×104) were lysed in a buffer containing Hepes 50 mM, DTT 1 mM, EDTA 0.1 mM, NP-40 0.1%, CHAPS 0.1% and protein quantitation determined. Protein aliquots (20 μg) were incubated with 20 μM Ac-DEVD-AMC (Pharmingen, San Diego, Calif.) in a buffer containing Hepes 50 mM, DTT 1 mM, EDTA 0.1 mM, NP-40 0.1%, CHAPS 0.1%, at 37° C. for 3 h. Caspase 3 activity was determined in the cytosolic extracts by analysing the release of 7-amino-4-methylcoumarin (AMC) from N-acetyl-DEVD-AMC (Thornberry N A, et al. Nature 1992; 356:768-74); the release of AMC was monitored in a spectrofluorometer with an excitation wavelength of 380 nm and emission wavelength of 440 nm.
as §2, with “356: 768-74);” for “356:768-74);”

HUVEC cells = test: Binding of fluorescein-conjugated MA peptide to HUVEC cells (flow cytometry); design: species or system human
Method: HUVE cells (1×10^4/cm2) were incubated with 500 nM MA peptide conjugated with fluorescein and competed with increasing amount of VEGF at 30 min at 4° C. in the dark. Then, cell fluorescence was analyzed by flow cytometry.
(§3) Fluorescence—Cells (3×105) were incubated with saturating amounts of FITC-conjugated and the other indicated reagents, 5 min at 4° C. in the dark. After washing with PBS, the cells were resuspended in PBS and analyzed with a FACScan (Becton Dickinson) flow cytometer.
Binding of MA peptide to HUVEC cells. To verify that MA peptide bound to HUVEC cells, we incubated the cells with MA or a scrambled peptide conjugated with fluorescein and analyze the binding by FACS.

HUVEC [2] = test: FITC-Annexin V binding of HUVEC by flow cytometry; format: cell-based, human; conditions: HUVEC 24 h, VEGF 20 ng/ml plus MA peptide 100 ng/ml
Method: as §1, §3
Effect of MA peptide on the appearance of annexin V+ cells in cultures with VEGF. Apoptotic cells externalize phosphatidylserine, that is bound by annexin V (Steensma D P, et al., Methods Mol. Med. 2003; 85: 323-32).

WKY rats = test: Ischemic hindlimb model, digital angiographies and blood flow determination; format: in vivo, rat; conditions: 14 days
RB = RB phosphorylation (western blot); format: cell-based, bovine; conditions: 12 and 18 hours; QK 10^-6 M, VEGF165 100 ng/ml, VEGF 15 10^-6 M
Method: Effect of QK on cell proliferation. a) DNA synthesis. BAEC were incubated in DMEM with [^3H]-thymidine and QK in absence or in presence of VEGF165 (100 ng/ml). After 24 hours cells were fixed and lysed. Scintillation liquid was added and [^3H]-thymidine incorporation was evaluated. b) Cell proliferation. BAEC were stimulated with the indicated amount of QK in absence or in presence of VEGF165 (100 ng/ml). Cell number was determined at 24 hours after stimulation. c) RB phosphorylation. p-RB was evaluated at 12 and 18 hours after stimulation with QK (10^-6M), VEGF165 (100 ng/ml) and VEGF 15 (10^−6 M).
Cells proliferation assay. Cells were seeded at a density of 10000 per well in six well plates, serum starved overnight and then stimulated with QK (10-12 to 10^−6 M) in absence or in presence of VEGF165. Cell number was determined at 24 hours after stimulation. The p-RB, was evaluated by western blot 12 and 18 hours after stimulation with QK (10^−6 M), VEGF165 and VEGF 15 (10^−6 M).

Flt-1 = target: T1, Flt-1 (Bos taurus, UniProt F1MDD9); test: Flt-1 activation (immunoprecipitation, phospho-tyrosine western blot) in BAEC; format: cell-based, bovine; conditions: 15 minutes of exposure
T1 construct: we immunoprecipitated total KDR and Flt-1 from BAEC whole extracts; endogenous in cells; host or cells: BAEC (bovine aorta endothelial cells, SV40-immortalized)
T1 sequence (F1MDD9 1-1251): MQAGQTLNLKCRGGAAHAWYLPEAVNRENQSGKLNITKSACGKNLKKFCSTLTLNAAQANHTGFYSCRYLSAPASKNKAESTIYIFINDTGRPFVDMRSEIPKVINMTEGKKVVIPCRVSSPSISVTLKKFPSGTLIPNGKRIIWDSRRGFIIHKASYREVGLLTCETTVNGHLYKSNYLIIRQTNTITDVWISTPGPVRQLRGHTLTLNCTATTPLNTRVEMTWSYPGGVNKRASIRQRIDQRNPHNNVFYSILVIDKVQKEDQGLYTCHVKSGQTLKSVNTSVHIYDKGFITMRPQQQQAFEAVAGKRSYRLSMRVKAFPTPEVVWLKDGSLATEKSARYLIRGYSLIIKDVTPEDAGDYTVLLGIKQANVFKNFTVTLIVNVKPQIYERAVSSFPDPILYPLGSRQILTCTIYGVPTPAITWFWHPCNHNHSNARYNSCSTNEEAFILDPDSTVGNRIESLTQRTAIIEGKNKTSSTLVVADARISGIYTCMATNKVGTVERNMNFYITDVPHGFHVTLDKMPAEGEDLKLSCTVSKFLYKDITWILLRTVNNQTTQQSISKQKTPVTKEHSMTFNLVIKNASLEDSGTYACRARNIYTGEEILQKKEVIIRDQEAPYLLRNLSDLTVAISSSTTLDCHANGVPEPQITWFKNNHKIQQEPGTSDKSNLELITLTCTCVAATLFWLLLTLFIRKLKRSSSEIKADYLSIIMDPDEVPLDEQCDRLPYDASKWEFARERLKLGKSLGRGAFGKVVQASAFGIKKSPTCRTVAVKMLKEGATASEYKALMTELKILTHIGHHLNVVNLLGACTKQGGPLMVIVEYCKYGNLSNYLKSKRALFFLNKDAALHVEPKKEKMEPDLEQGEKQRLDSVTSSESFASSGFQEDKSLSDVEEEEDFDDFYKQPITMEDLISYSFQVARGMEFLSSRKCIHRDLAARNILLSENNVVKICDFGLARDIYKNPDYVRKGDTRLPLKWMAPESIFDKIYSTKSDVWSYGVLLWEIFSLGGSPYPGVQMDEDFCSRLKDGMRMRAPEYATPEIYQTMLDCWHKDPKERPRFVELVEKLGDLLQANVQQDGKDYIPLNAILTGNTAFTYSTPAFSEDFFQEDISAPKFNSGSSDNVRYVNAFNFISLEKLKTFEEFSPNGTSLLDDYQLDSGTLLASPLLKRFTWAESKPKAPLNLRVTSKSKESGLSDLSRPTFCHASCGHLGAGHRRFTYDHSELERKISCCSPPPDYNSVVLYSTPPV
Method: (§4) VEGF receptors binding and activation. a) VEGF competitive binding on BAEC. 1 μg of membrane protein was plated with QK and [^125I]-VEGF (500000 cpm, 10^−10 M). b) KDR activation. After stimulation total KDR was immunoprecipitated from a whole-cell protein extracts and phospho-tyrosine was visualized by a specific antibody, anti-rabbit HRP-conjugated secondary antibody and standard chemiluminescence. c) Flt-1 activation. After stimulation total Flt-1 was immunoprecipitated from a whole-cell protein extracts and phospho-tyrosine was visualized by specific antibody, anti-rabbit HRP-conjugated secondary antibody and standard chemiluminescence.
(§5) Western blot. Cells were plated on six-well dishes and serum starved overnight. On the next day, cells were treated with different amount of peptide in absence or in presence of VEGF165 for 15 minutes at 37° C. and then dissolved in RIPA-SDS buffer (50 mM Tris-HCl (pH 7.5), 150 mM NaCl, 1% NP-40, 0.25% deoxycholate, 9.4 mg/50 ml sodium orthovanadate, […]). In some experiments, total KDR and Flt-1 were immunoprecipitated from an equal amount of whole-cell protein extracts using protein A/G agarose beads conjugated with antibodies raised against total KDR or Flt-1 (R&D). Proteins from whole-cell extracts or immunocomplexes were resolved by PAGE and transferred to nitrocellulose. […]

KDR = target: T2, KDR (Bos taurus, UniProt A0AAA9SPC9); test: KDR activation (immunoprecipitation, phospho-tyrosine western blot) in BAEC; format: cell-based, bovine; conditions: 15 minutes of exposure
T2 construct: we immunoprecipitated total KDR and Flt-1 from BAEC whole extracts; endogenous in cells; host or cells: BAEC (bovine aorta endothelial cells, SV40-immortalized)
T2 sequence (A0AAA9SPC9 20-1356): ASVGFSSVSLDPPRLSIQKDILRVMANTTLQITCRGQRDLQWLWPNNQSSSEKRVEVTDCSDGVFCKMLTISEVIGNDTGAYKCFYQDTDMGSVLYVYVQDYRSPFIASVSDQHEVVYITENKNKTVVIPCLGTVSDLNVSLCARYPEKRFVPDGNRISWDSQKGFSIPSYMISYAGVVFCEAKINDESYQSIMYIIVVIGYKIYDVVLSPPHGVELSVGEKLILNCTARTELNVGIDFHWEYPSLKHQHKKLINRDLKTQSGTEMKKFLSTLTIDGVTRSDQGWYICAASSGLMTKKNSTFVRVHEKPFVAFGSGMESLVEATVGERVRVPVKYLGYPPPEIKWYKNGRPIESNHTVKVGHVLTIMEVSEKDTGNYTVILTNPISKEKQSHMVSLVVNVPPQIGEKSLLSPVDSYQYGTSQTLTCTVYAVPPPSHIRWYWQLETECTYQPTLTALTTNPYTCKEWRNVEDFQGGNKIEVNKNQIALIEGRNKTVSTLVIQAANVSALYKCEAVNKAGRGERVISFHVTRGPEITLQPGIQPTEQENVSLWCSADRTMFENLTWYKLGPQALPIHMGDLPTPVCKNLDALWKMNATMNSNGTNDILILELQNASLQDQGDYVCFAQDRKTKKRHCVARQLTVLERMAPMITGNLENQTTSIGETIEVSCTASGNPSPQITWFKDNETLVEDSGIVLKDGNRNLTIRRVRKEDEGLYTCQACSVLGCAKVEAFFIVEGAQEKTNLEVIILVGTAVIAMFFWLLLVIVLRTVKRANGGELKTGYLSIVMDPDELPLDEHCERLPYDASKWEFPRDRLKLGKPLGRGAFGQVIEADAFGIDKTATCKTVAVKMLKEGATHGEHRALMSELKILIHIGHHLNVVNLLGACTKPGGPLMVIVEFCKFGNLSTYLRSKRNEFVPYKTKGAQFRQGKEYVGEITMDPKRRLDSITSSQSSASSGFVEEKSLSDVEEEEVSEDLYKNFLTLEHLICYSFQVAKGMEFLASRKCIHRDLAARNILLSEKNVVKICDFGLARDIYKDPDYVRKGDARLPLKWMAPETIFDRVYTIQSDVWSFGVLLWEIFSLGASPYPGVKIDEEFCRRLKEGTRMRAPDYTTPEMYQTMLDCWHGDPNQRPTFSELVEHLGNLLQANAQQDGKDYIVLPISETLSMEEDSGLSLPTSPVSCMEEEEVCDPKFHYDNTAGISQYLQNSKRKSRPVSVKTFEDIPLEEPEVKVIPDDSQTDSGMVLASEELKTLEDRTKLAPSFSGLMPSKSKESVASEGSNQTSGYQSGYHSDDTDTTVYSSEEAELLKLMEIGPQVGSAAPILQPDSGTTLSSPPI
Method: as §4, §5

[3] = target: VEGF receptors on bovine aorta endothelial cell (BAEC) membranes; test: displacement of [125I]-VEGF from BAEC membranes (1 ug membrane protein) by QK at 10^-13 to 10^-8 M, gamma counter

KLTWMELYQLAYKGI (KLTWMELYQLAYKGI-NH2) [MA]
levels of phosphorylated ERK1/2 kinase with VEGF in the presence of peptide (ERK1/2 kinase): highly reduced | effect on VEGF anti-apoptotic activity (caspase 3) (HUVEC [1]): abolished | binding to HUVEC cells (HUVEC cells; fluorescein-conjugated peptide, FACS): specifically bound to the cells in a dose-dependent manner | annexin V+ cells (HUVEC [2]): > 22%

KLTWMELYQLKYKGI (KLTWMELYQLKYKGI-NH2) [MK]
effect on VEGF anti-apoptotic activity (caspase 3) (HUVEC [1]): partially inhibited the effect of the growth factor

VEGF165: Vascular Endothelial Growth Factor, most abundant isoform, 45 KDa glycoprotein (Alexis), positive control in Example 1
BEADS Ischemic to non ischemic (WKY rats; dyed beads dilution, muscle ratio, infusion 10^-7 M): 0.97 ± 0.12 | ANGIOGRAPHY Number of TFC (WKY rats; ischemic hindlimb, chronic intrafemoral artery infusion 10^-7 M): 18 ± 2 | phosphorylation of the cyclin RB (RB): enhanced phosphorylation of the cyclin RB | Flt-1 phosphorylation (Flt-1): increases Flt-1 phosphorylation | phospho-KDR levels (KDR): caused the reduction in the levels of phospho-KDR at the membrane

B1: human recombinant VEGF: Human recombinant VEGF obtained from R&D, used in Example 2 on HUVEC (protein)
chain: APMAEGGGQNHHEVVKFMDVYQRSYCHPIETLVDIFQEYPDEIEYIFKPSCVPLMRCGGCCNDEGLECVPTEESNITMQIMRIKPHQGQHIGEMSFLQHNKCECRPKKDRARQENPCGPCSERRKHLFVQDPQTCKCSCKNTDSRCKARQLELNERTCRCDKPRR
competition with fluorescein-conjugated MA peptide on HUVEC (HUVEC cells; 500 nM MA peptide, increasing amount of VEGF, 4° C.): appeared to compete with MA peptide

Ac-KLTWQELYQLKYKGI-NH2 [QK peptide (SEQ ID No.8)]
Kd [3]: 0.316 nM
